# The source made the active and inactive calls. The calls are words filed in the database; no cut-off is given here.
# Assays:
# [1] = biological target: Lactoylglutathione lyase (Homo sapiens) (UniProt Q04760); assay: Inactivation of human GLO1 expressed in Escherichia coli JM103 at 4.7 to 80.6 uM after 5 to 180 secs
# [2] = biological target: Lactoylglutathione lyase (Homo sapiens) (UniProt Q04760); assay: Competitive inhibition of human GLO1 expressed in Escherichia coli JM103 at 0.1 to 0.7 mM by Dixon plot analysis
# Sequence of Lactoylglutathione lyase (Homo sapiens) (Q04760 2-184 limits assumed): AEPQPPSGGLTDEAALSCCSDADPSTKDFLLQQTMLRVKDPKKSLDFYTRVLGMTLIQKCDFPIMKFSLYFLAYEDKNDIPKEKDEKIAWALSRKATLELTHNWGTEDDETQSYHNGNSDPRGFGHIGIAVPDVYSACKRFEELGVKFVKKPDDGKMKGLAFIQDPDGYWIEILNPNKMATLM
compound,measurement,setting,value
N[C@@H](CCC(=O)N[C@@H](CSCC(=O)OCCCCOC(=O)CBr)C(=O)NCC(=O)O)C(=O)O,Activity,[1],Active
same,inhibition,[2],inactive
